{"source": "patent US9237747B2", "about": "“Herbicidal compositions comprising 4-amino-3-chloro-5-fluoro-6-(4-chloro-2-fluoro-3-methoxyphenyl) pyridine-2-carboxylic acid or a derivative thereof and insecticides” (priority 2013, dated 2016)", "key": {"SCPMA": {"test_system": "SCPMA", "assay": "In-water applied weed control, transplanted paddy rice (greenhouse)", "assay_type": "in vivo, Schoenoplectus maritimus", "description": "Weed seeds or nutlets of the desired test plant species were planted in puddled soil (mud) prepared by mixing a shredded, non-sterilized mineral soil (50.5 percent silt, 25.5 percent clay, and 24 percent sand, with a pH of about 7.6 and an organic matter content of about 2.9 percent) and water at a 1:1 volumetric ratio. The prepared mud was dispensed in 365 mL aliquots into 16-ounce (oz.) non-perforated plastic pots with a surface area of 86.59 square centimeters (cm^2) leaving a headspace of 3 centimeters (cm) in each pot. Rice seeds were planted in Sun Gro MetroMix® 306 planting mixture, which typically has a pH of 6.0 to 6.8 and an organic matter content of about 30 percent, in plastic plug trays. Seedlings at the second or third leaf stage of growth were transplanted into 860 mL of mud contained in 32-oz. non-perforated plastic pots with a surface area of 86.59 cm^2 4 days prior to herbicide application. The paddy was created by filling the headspace of the pots with 2.5 to 3 cm of water. When required to ensure good germination and healthy plants, a fungicide treatment and/or other chemical or physical treatment was applied. The plants were grown for 4-22 days in a greenhouse with an approximate 14 h photoperiod which was maintained at about 29° C. during the day and about 26° C. during the night. Nutrients were added as Osmocote® (17:6:10, N:P:K+minor nutrients) at 2 grams (g) per 16-oz. pot and 4 g per 32-oz. pot. Water was added on a regular basis to maintain the paddy flood, and supplemental lighting was provided with overhead metal halide 1000-Watt lamps as necessary. The plants were employed for testing when they reached the first through fourth true leaf stage.\nTreatments consisted of the acid or esters of 4-amino-3-chloro-5-fluoro-6-(4-chloro-2-fluoro-3-methoxy-phenyl)pyridine-2-carboxylic acid (compound A) each formulated as an SC (suspension concentrate) and various herbicidal components alone and in combination. Forms of compound A were applied on an acid equivalent basis.\nOther […] components were applied on an active ingredient basis and consisted of etofenprox (technical grade material) and sulfoxaflor formulated as Sulfoxaflor WG.\nTreatment requirements for each compound or herbicidal component were calculated based upon the rates being tested, the concentration of active ingredient or acid equivalent in the formulation, an application volume of 2 mL per component per pot, and an application area of 86.59 cm^2 per pot.\nFor formulated compounds, a measured amount was placed in an individual 100 or 200 mL glass vial and was dissolved in a volume of 1.25% (v/v) AgriDex® crop oil concentrate to obtain application solutions.\nFor technical grade compounds, a weighed amount was placed in an individual 100 to 200 mL glass vial and was dissolved in a volume of acetone to obtain concentrated stock solutions.\nApplications were made by injecting with a pipetter appropriate amounts of the application solutions, individually and sequentially, into the aqueous layer of the paddy. Control plants were treated in the same manner with the solvent blank. Applications were made so that all treated plant material received the same concentrations of acetone and crop oil concentrate.\nThe treated plants and control plants were placed in a greenhouse as described above and water was added as needed to maintain a paddy flood. After approximately 3 weeks the condition of the test plants as compared with that of the untreated plants was determined visually and scored on a scale of 0 to 100 percent where 0 corresponds to no injury or growth inhibition and 100 corresponds to complete kill.\nColby's equation was used to determine the herbicidal effects expected from the mixtures (Colby, S. R. Calculation of the synergistic and antagonistic response of herbicide combinations. Weeds 1967, 15, 20-22.). […]"}, "CYPIR": {"test_system": "CYPIR", "assay_type": "in vivo, Cyperus iria", "description": "Seeds or nutlets of the desired test plant species were planted in a soil matrix prepared by mixing a loam or sandy loam soil (e.g., 28.6 percent silt, 18.8 percent clay, and 52.6 percent sand, with a pH of about 5.8 and an organic matter content of about 1.8 percent) and calcareous grit in an 80 to 20 ratio. The soil matrix was contained in plastic pots with a volume of 1 quart and a surface area of 83.6 square centimeters (cm^2). When required to ensure good germination and healthy plants, a fungicide treatment and/or other chemical or physical treatment was applied. The plants were grown for 8-22 days in a greenhouse with an approximate 14 hour (h) photoperiod which was maintained at about 29° C. during the day and 26° C. during the night. Nutrients (Peters Excel® 15-5-15 5-Ca 2-Mg and iron chelate) were applied in the irrigation solution as needed and water was added on a regular basis. Supplemental lighting was provided with overhead metal halide 1000-Watt lamps as necessary. The plants were employed for testing when they reached the first through fourth true leaf stage.\nTreatments consisted of the acid or esters of 4-amino-3-chloro-6-(4-chloro-2-fluoro-3-methoxyphenyl)-5-fluoropyridine-2-carboxylic acid (Compound A), each formulated as an SC (suspension concentrate), and various insecticidal components alone and in combination. Forms of compound A were applied on an acid equivalent basis.\nTreatment requirements were calculated based upon the rates being tested, the concentration of active ingredient or acid equivalent in the formulation, and a 12 milliliter (mL) application volume at a rate of 187 liters per hectare (L/ha).\nFor treatments comprised of formulated compounds, measured amounts of compounds were placed individually in 25 mL glass vials and diluted in a volume of 1.25% volume per volume (v/v) Agri-Dex® crop oil concentrate to obtain 12× stock solutions. […] Application solutions were prepared by adding an appropriate amount of each stock solution (e.g., 1 mL) and diluted to the appropriate final concentrations with the addition of […] of an aqueous mixture of 1.25% (v/v) crop oil concentrate so that the final spray solutions contained 1.25+/−0.05% (v/v) crop oil concentrate.\nAs required, additional water and/or 97:3 v/v acetone/DMSO was added to individual application solutions so that the final acetone and DMSO concentrations of the application solutions being compared were 8.1% and 0.25%, respectively.\nAll stock solutions and applications solutions were visually inspected for compound compatibility prior to application. Spray solutions were applied to the plant material with an overhead Mandel track sprayer equipped with 8002E nozzles calibrated to deliver 187 L/ha over an application area of 0.503 square meters (m^2) at a spray height of 18 to 20 inches (46 to 50 cm) above average plant canopy height. Control plants were sprayed in the same manner with the solvent blank.\nThe treated plants and control plants were placed in a greenhouse as described above and watered by sub-irrigation to prevent wash-off of the test compounds. After approximately 3 weeks, the condition of the test plants as compared to that of the untreated plants was determined visually and scored on a scale of 0 to 100 percent where 0 corresponds to no injury or growth inhibition and 100 corresponds to complete kill.\nColby's equation was used to determine the herbicidal effects expected from the mixtures (Colby, S. R. Calculation of the synergistic and antagonistic response of herbicide combinations. Weeds 1967, 15, 20-22.).\nThe following equation was used to calculate the expected activity of mixtures containing two active ingredients, A and B: Expected=A+B−(A×B/100)"}}, "note": "Like-named read-outs stand apart in the source and are kept apart here.", "data": [{"smiles": "COc1c(Cl)ccc(-c2nc(C(=O)O)c(Cl)c(N)c2F)c1F", "note": "[Compound A Acid, 4-amino-3-chloro-6-(4-chloro-2-fluoro-3-methoxyphenyl)-5-fluoropyridine-2-carboxylic acid]", "values": [{"measurement": "Visual Weed Control (%) - 21 DAA SCPMA Obs", "setting": "SCPMA; 4.38 g ae/ha alone", "result": 0, "unit": "%"}, {"measurement": "Visual Weed Control (%) - 21 DAA SCPMA Obs", "setting": "SCPMA; 8.75 g ae/ha alone", "result": 0, "unit": "%"}, {"measurement": "Visual Weed Control (%) - 20 DAA CYPIR Obs", "setting": "CYPIR; 4.38 g ae/ha alone", "result": 30, "unit": "%"}]}, {"smiles": "COc1c(Cl)ccc(-c2nc(C(=O)OCc3ccccc3)c(Cl)c(N)c2F)c1F", "note": "[Compound A Benzyl Ester]", "values": [{"measurement": "Visual Weed Control (%) - 21 DAA SCPMA Obs", "setting": "SCPMA; 21 DAA, 4.38 g ae/ha alone", "result": 0, "unit": "%"}, {"measurement": "Visual Weed Control (%) - 21 DAA SCPMA Obs", "setting": "SCPMA; 21 DAA, 8.75 g ae/ha alone", "result": 0, "unit": "%"}, {"measurement": "Visual Weed Control (%) - 21 DAA SCPMA Obs", "setting": "SCPMA; 21 DAA, 17.5 g ae/ha alone", "result": 0, "unit": "%"}, {"measurement": "Visual Weed Control (%) - 22 DAA CYPIR Obs", "setting": "CYPIR; 4.38 g ae/ha alone", "result": 70, "unit": "%"}, {"measurement": "Visual Weed Control (%) - 21 DAA CYPIR Obs", "setting": "CYPIR; 8 g ae/ha alone", "result": 50, "unit": "%"}, {"measurement": "Visual Weed Control (%) - 21 DAA CYPIR Obs", "setting": "CYPIR; 21 DAA, 8 g ae/ha alone", "result": 50, "unit": "%"}]}, {"smiles": "CC(c1ccc(C(F)(F)F)nc1)S(C)(=O)=NC#N", "note": "(stereo not shown) [Sulfoxaflor, N-[methyloxido[1-[6-(trifluoromethyl)-3-pyridinyl]ethyl]-λ^4-sulfanylidene]cyanamide]", "values": [{"measurement": "Visual Weed Control (%) - 21 DAA SCPMA Obs", "setting": "SCPMA; 21 DAA, 50 g ai/ha alone", "result": 0, "unit": "%"}, {"measurement": "Visual Weed Control (%) - 21 DAA SCPMA Obs", "setting": "SCPMA; 50 g ai/ha alone", "result": 0, "unit": "%"}, {"measurement": "Visual Weed Control (%) - 21 DAA CYPIR Obs", "setting": "CYPIR; 21 DAA, 75 g ai/ha alone", "result": 0, "unit": "%"}, {"measurement": "Visual Weed Control (%) - 21 DAA CYPIR Obs", "setting": "CYPIR; 21 DAA, 150 g ai/ha alone", "result": 0, "unit": "%"}]}]}
